In patent US8404687B2, “Disubstituted phthalazine hedgehog pathway antagonists” (Eli Lilly and Company, priority 2008, dated 2013):
Where a name gives a salt, the structure may show the parent alone.

Key:
CYP3A4 = target: T1, CYP3A4 (Homo sapiens, UniProt P08684); test: CYP3A4 Inhibition Assay; assay type: in vitro ADME; conditions: liver microsomes, pH 7.4, probe midazolam (5 μM; formation of 1-OH-midazolam), human liver microsomal preparation, 10 μM inhibitor, 5 μM midazolam substrate
T1 construct: from tissue; host or cells: human liver microsomes
Description: Incubation samples are prepared by adding a human liver microsomal preparation to the test inhibitor (final concentrations 0.05 mg/mL protein, 10 μM inhibitor in 100 mM NaPO4, pH 7.4 buffer) and mixed. Samples are pre-incubated for approximately five minutes at 37° C. Following the pre-incubation period, the reaction is initiated with the addition of a solution containing NADPH and midazolam, as the enzyme substrate, (final concentration 1 mM NADPH, 5 μM midazolam). After addition of the NADPH solution, the samples are incubated for 3 min at approximately 37° C. Following the incubation period, the reaction is quenched by the addition of 50 μL of methanol (and an internal standard for chromatography) and the samples are mixed well. After quenching the reaction, the mixture is centrifuged at approximately 4000 rpm for 15 min at approximately 5° C. and analyzed by LC/MS analysis.
Samples are analyzed using HPLC/MS with gradient elution on short conventional C18 columns, (Loading Mobile Phase—95/5 Milli-Q H2O/methanol (v/v) with 1% acetic acid. Mobile Phase B—80/20 Milli-Q H2O/methanol (v/v) with 1% acetic acid. Mobile Phase C—5/95 Milli-Q H2O/methanol (v/v) with 1% acetic acid. Rinsing Mobile Phase—75/25 Milli-Q H2O/acetonitrile (v/v).
The samples are injected into a Mass Spectral Analyzer for Selected Ion Monitoring (SIM) at a mass of 342.1 (1-OH-midazolam) and 346.1 (α-hydroxymidazolam-d4 internal standard) using Turbolon Spray under positive conditions. Data are reported as % inhibition of the formation of 1-OH-midazolam in the presence of an inhibitor concentration of 10 μM.

[1] = system: Gli1 transcript in Daoy cells stimulated with Shh conditioned media; test: Functional assay for measuring the inhibition of Gli1 in Daoy cells (bDNA); assay type: cell-based; conditions: Homo sapiens; Daoy cells treated with Shh-CM, 24 hours incubation with compound, Gli1 transcript by bDNA luminescence
Description: Biological activity is determined using a functional assay in Daoy neuronal cancer cells and measures levels of Gli1 ribonucleic acid via a bDNA (branched deoxyribonucleic acid) assay system (Panomics, Inc., Fremont, Calif.). Gli was originally discovered in a Glioblastoma cell line and encodes a zinc finger protein that is activated by Shh signaling. The maximum response is obtained by inducing Gli1 transcription in the Daoy cells with conditioned medium (human embryonic kidney, HEK-293 cells stably expressing recombinant Shh) for 24 hours and then measuring the amount of stimulated Gli1 transcript. […]
The bDNA assay system utilizes the technology of branched-chain DNA to allow amplification of a target ribonucleic acid (transcript). […] The addition of a chemilumigenic substrate during the amplification step allows for detection using luminescence. […]
Daoy cells are grown to confluency in tissue culture T225-flasks in Daoy growth media containing Minimum Essential Medium (MEM) plus 10% Fetal Bovine Serum (FBS) with […] non-essential amino acids and 1 mM sodium pyruvate. The cells are removed from the T225-flasks using trypsin ethylenediaminetetraacetic acid (EDTA), centrifuged, resuspended in media, and then counted. […]

T1 sequence (P08684 whole entry): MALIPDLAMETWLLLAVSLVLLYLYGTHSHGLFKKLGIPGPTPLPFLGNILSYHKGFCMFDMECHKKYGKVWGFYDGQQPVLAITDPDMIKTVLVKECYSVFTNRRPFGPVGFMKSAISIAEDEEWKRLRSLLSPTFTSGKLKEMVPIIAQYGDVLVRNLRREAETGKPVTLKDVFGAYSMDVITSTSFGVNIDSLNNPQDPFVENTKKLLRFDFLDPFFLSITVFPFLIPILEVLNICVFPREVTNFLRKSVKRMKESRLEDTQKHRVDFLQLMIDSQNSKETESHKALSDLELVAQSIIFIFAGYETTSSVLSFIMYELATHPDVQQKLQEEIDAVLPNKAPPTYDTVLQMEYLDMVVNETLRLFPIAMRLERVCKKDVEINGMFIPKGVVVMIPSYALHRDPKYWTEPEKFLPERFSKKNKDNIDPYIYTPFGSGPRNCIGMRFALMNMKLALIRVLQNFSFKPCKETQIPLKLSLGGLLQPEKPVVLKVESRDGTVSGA

Row | inhibition at 3 min, 10 μM (CYP3A4) [%] | IC50 [1] [nM] | SMILES
1 | < 45 |  | CC1CN(C(=O)Nc2ccc(OC(F)(F)F)cc2)CCN1c1nnc(-c2ccc(F)cc2)c2ccccc12 (racemic) [Example 6, (±)-4-(4-(4-Fluorophenyl)phthalazin-1-yl)-3-methyl-N-(4-(trifluoromethoxy)phenyl)piperazine-1-carboxamide hydrochloride]
2 |  | ~0.42 | C[C@H]1CN(C(=O)Nc2ccc(F)cc2)CCN1c1nnc(-c2ccc(F)cc2)c2ccccc12 [Example 2, (S)—N-(4-Fluorophenyl)-4-(4-(4-fluorophenyl)phthalazin-1-yl)-3-methylpiperazine-1-carboxamide hydrochloride]
3 | < 45 |  | C[C@H]1CN(c2nnc(-c3ccc(C(F)(F)F)cc3)c3ccccc23)CCN1C(=O)Nc1ccc(F)cc1 [Example 45, (S)-N-(4-Fluorophenyl)-2-methyl-4-(4-(4-(trifluoromethyl)phenyl)phthalazin-1-yl)piperazine-1-carboxamide hydrochloride]
4 | < 45 |  | C[C@H]1CN(C(=O)Nc2ccc(OC(F)(F)F)cc2)CCN1c1nnc(-c2ccc(F)cc2)c2ccccc12 [Example 48, (S)-4-(4-(4-Fluorophenyl)phthalazin-1-yl)-3-methyl-N-(4-(trifluoromethoxy)phenyl)piperazine-1-carboxamide hydrochloride]
5 | < 45 |  | CC[C@H]1CN(c2nnc(-c3ccc(F)cc3)c3ccccc23)CCN1C(=O)Nc1ccc(F)cc1 [Example 88, (S)-2-Ethyl-N-(4-fluorophenyl)-4-(4-(4-fluorophenyl)phthalazin-1-yl)piperazine-1-carboxamide hydrochloride]

Further lines, the compound ahead of its results:

Row | SMILES | inhibition at 3 min, 10 μM (CYP3A4) [%] | IC50 [1] [nM]
6 | C[C@H]1CN(c2nnc(-c3ccc(F)cc3)c3ccccc23)CCN1C(=O)Nc1ccc(F)cc1C(F)(F)F [Example 18, (S)-N-(4-Fluoro-2-(trifluoromethyl)phenyl)-4-(4-(4-fluorophenyl)phthalazin-1-yl)-2-methylpiperazine-1-carboxamide hydrochloride] | < 45 | 
7 | C[C@H]1CN(c2nnc(-c3ccc(C#N)cc3)c3ccccc23)CCN1C(=O)Nc1ccc(F)cc1F [Example 26, (S)-4-(4-(4-Cyanophenyl)phthalazin-1-yl)-N-(2,4-difluorophenyl)-2-methylpiperazine-1-carboxamide hydrochloride] | < 45 | 
8 | C[C@H]1CN(c2nnc(-c3ccc(C(F)(F)F)cc3)c3ccccc23)CCN1C(=O)Nc1ccc(F)cc1F [Example 47, (S)-N-(2,4-Difluorophenyl)-2-methyl-4-(4-(4-(trifluoromethyl)phenyl)phthalazin-1-yl)piperazine-1-carboxamide hydrochloride] | < 45 | 
9 | C[C@H]1CN(C(=O)Nc2ccc(F)cc2C(F)(F)F)CCN1c1nnc(-c2ccc(C#N)cc2)c2ccccc12 [Example 60, (S)-4-(4-(4-Cyanophenyl)phthalazin-1-yl)-N-(4-fluoro-2-(trifluoromethyl)phenyl)-3-methylpiperazine-1-carboxamide hydrochloride] | < 45 | 
10 | C[C@H]1CN(C(=O)Nc2ccc(F)cc2C(F)(F)F)CCN1c1nnc(-c2ccccc2)c2ccccc12 [Example 69, (S)-N-(4-Fluoro-2-(trifluoromethyl)phenyl)-3-methyl-4-(4-phenylphthalazin-1-yl)piperazine-1-carboxamide hydrochloride] | < 45 | 
11 | CC[C@H]1CN(c2nnc(-c3ccc(F)cc3)c3ccccc23)CCN1C(=O)Nc1ccc(F)cc1F [Example 86, (S)-N-(2,4-Difluorophenyl)-2-ethyl-4-(4-(4-fluorophenyl)phthalazin-1-yl)piperazine-1-carboxamide hydrochloride] | < 45 | 
12 | CC[C@H]1CN(c2nnc(-c3ccc(F)cc3)c3ccccc23)CCN1C(=O)Nc1ccc(F)cc1C(F)(F)F [Example 87, (S)-2-Ethyl-N-(4-fluoro-2-(trifluoromethyl)phenyl)-4-(4-(4-fluorophenyl)phthalazin-1-yl)piperazine-1-carboxamide hydrochloride] | < 45 | 
